From patent publication US20180085356A1, “METHOD OF TREATING DISEASE CHARACTERISED BY PROTEIN AGGREGATE DEPOSITION IN NEURONAL CELLS” (CHRONOS THERAPEUTICS LIMITED, priority 2013, published 2018)

Tests used:
[1] = system: primary motor neuron (MN) cultures generated from rat spinal cord; experiment: Motor neuron culture with Aβ1-42 insult: neurite network and survival (MAP-2 staining); assay type: cell-based; details: 24 hours after 20 μM Aβ1-42 insult, treated 1 hour before
Method: Primary motor neuron (MN) cultures generated from rat spinal cord were treated with 20 μM amyloid beta 1-42 peptide (Aβ1-42). […] This model was used to determine the effect of tacrolimus on TDP-43 toxicity in motor neurons. […] After permeabilisation with 0.1% saponin, one group of cells was incubated for 2 hours with a) mouse monoclonal anti-microtubule-associated-protein 2 (MAP-2) antibody, and b) rabbit polyclonal anti-TDP-43 antibody. The anti-MAP-2 antibody was used to determine MN survival (number of stained MN) and MN neurite length. The anti-TDP-43 antibody was used to examine extranuclear TDP-43: the area of extranuclear TDP-43 staining per MN was calculated by normalising to the number of MAP-2 positive cells.

rat microglia = experiment: Microglial cell culture model of inflammation (LPS challenge); assay type: cell-based; details: 100 ng/ml LPS overnight
Method: (§1) To investigate the effect of tacrolimus on microglial function, rat microglia were isolated as follows. A primary glial co-culture was isolated from P2 Sprague Dawley rat pups. The cells were cultured until confluency and then the microglia were isolated from the confluent glial cells through mechanical shaking. The isolated microglial cells were then subjected to inflammatory challenge by overnight exposure to 100 ng/ml lipopolysaccharide (LPS), in the presence or absence of tacrolimus. Glial cell activity was monitored by determining cell viability (Cell Counting Kit-8), the presence of reactive oxygen species (by quantitative fluorescence measurement in the supernatant/cell lysate), microvesicle shedding (by monitoring vesicle formation in cells loaded with Calcein-AM and then challenged with 1 mM ATP) and inflammatory cytokine production (by qPCR).

[2] = system: C. elegans expressing human alpha-synuclein in the body wall muscle; experiment: C. elegans lifespan assay, alpha-synuclein strain; assay type: in vivo, Caenorhabditis elegans; details: p<0.05 DMSO vs. Tacrolimus
Method: (§2) Tacrolimus was tested in a number of disease models using the nematode worm, Caenorhabditis elegans, in which aggregate-prone proteins associated with neurodegenerative diseases are expressed in certain cell types. The effect of tacrolimus was determined by measuring the lifespan of worms in the presence and absence of tacrolimus, using the following general methodology. All of the worms tested using these assays also contained, in addition to the transgene expressing the disease-related protein, a mutation in the bus-5 gene which confers drug-sensitivity.
(§3) C. elegans cultures were synchronised by incubating an asynchronous culture in basic sodium hypochlorite solution to kill everything but the bleach-resistant mature eggs. The eggs were added on to agar plates and then allowed to hatch and develop in the presence of the test compound (or vehicle) and bacterial food source. […] From this point on, each ageing population was inspected at regular intervals (e.g. daily) and viability assessed by counting the number of dead worms.
(§4) The cumulative number of dead worms for each population was used to generate a survival/viability plot to determine chronological lifespan (CLS). Survival was analysed using the Kaplan-Meier log-rank survival analysis method, using the Online Application for Survival (OASIS; see http://sbi.postech.ac.kr/oasis). […]

IL-6 = experiment: Microglial inflammatory cytokine production by qPCR (LPS challenge); assay type: cell-based, rat; details: 100 ng/ml LPS overnight
Method: as §1

[3] = system: C. elegans expressing YFP alone (Q0) in the body wall muscle; experiment: C. elegans lifespan assay, YFP alone (Q0) strain; assay type: in vivo, Caenorhabditis elegans; details: p<0.05 vs. Q0 DMSO
Method: as §2, §3, §4

[4] = system: FET3, SOD1, SOD2, COX9 transcripts; experiment: Yeast transcript analysis by RT-qPCR; assay type: cell-based, Saccharomyces cerevisiae; details: 10 μg/ml tacrolimus, cultures aged 3 days, normalised to U4 snRNA
Method: A pre-culture was diluted 1/100 into synthetic complete medium and tacrolimus was added to a final concentration of 10 μg/ml. (An equivalent volume of DMSO was added to a parallel culture as a control.) The cultures were then allowed to age for 3 days, before RNA extraction and transcript analysis by reverse transcription-qPCR (RT-qPCR). (Transcript levels are normalised to that of the U4 snRNA.)

[5] = system: C. elegans expressing wild-type human SOD-1 in the body wall muscle; experiment: C. elegans lifespan assay, wild-type SOD-1 strain; assay type: in vivo, Caenorhabditis elegans
Method: as §2
as §3, with “eggs.” for “eggs. The eggs were added on to agar plates and then allowed to hatch and develop in the presence of the test compound (or vehicle) and bacterial food source.”
as §4
The effect of tacrolimus on C. elegans expressing wild-type or mutant human SOD-1 in the body wall muscle was determined. […]

C=CC[C@@H]1/C=C(\C)C[C@H](C)C[C@H](OC)[C@H]2O[C@@](O)(C(=O)C(=O)N3CCCC[C@H]3C(=O)O[C@H](/C(C)=C/[C@@H]3CC[C@@H](O)[C@H](OC)C3)[C@H](C)[C@@H](O)CC1=O)[C@H](C)C[C@@H]2OC [tacrolimus, Tacrolimus]
motor neuron neurite network ([1]; p<0.05 all concentrations vs. Aβ): concentration-dependent increase | motor neuron survival ([1]; p<0.05 for 100 nM, 1 μM vs. Aβ): concentration-dependent increase | LPS-induced oxidative stress (reactive oxygen species) (rat microglia; p<0.01 all concentrations, concentration-dependent): significantly reduced | LPS-induced increase in metabolic activity of glial cells (rat microglia; p<0.01 for 100 nM and 1 μM): reduces this increase in a concentration-dependent manner | LPS-induced microvesicle shedding (rat microglia; p<0.01 for 1 μM, concentration-dependent): increase is reduced | lifespan [2]: significantly increasing the lifespan | LPS induction of IL-6 expression (IL-6): significantly reduced | lifespan [3]: significantly increases lifespan | expression of transcripts FET3, SOD1, SOD2 and COX9 [4]: upregulated | lifespan ([5]; 10 μg/ml in NGM agar, p<0.05 DMSO vs. Tacrolimus): significant increase in lifespan | increase in lifespan when bec-1 knocked down by RNAi ([5]; bec-1 RNAi, p>0.05 vs. bec-1 RNAi DMSO): virtually abolished
